Test results taken from ChEMBL document CHEMBL5244269, “Improving metabolic stability and removing aldehyde oxidase liability in a 5-azaquinazoline series of IRAK4 inhibitors” (Bioorg Med Chem, 2020).

Experiments:
Type in all cases: functional
SUD4 [1] = assay: Growth inhibition of human SU-DHL-4 cells at 1.7 uM incubated for 3 days in presence of 0.033 uM acalabrutinib relative to control; settings: SU-DHL-4, 72 h, time 3 day, read-out: GI
SUD4 [2] = assay: Growth inhibition of human SU-DHL-4 cells at 1.7 uM incubated for 3 days in presence of 0.017 uM acalabrutinib relative to control; settings: SU-DHL-4, 72 h, time 3 day, read-out: GI
SUD4 [3] = assay: Growth inhibition of human SU-DHL-4 cells at 1.7 uM incubated for 3 days in presence of 0.003 uM acalabrutinib relative to control; settings: SU-DHL-4, 72 h, time 3 day, read-out: GI
SUD4 [4] = assay: Growth inhibition of human SU-DHL-4 cells at 0.33 uM incubated for 3 days in presence of 0.33 uM acalabrutinib relative to control; settings: SU-DHL-4, 72 h, time 3 day, read-out: GI
SUD4 [5] = assay: Growth inhibition of human SU-DHL-4 cells at 0.33 uM incubated for 3 days in presence of 0.17 uM acalabrutinib relative to control; settings: SU-DHL-4, 72 h, time 3 day, read-out: GI
SUD4 [6] = assay: Growth inhibition of human SU-DHL-4 cells at 0.33 uM incubated for 3 days in presence of 0.033 uM acalabrutinib relative to control; settings: SU-DHL-4, 72 h, time 3 day, read-out: GI
SUD4 [7] = assay: Growth inhibition of human SU-DHL-4 cells at 0.33 uM incubated for 3 days in presence of 0.017 uM acalabrutinib relative to control; settings: SU-DHL-4, 72 h, time 3 day, read-out: GI
SUD4 [8] = assay: Growth inhibition of human SU-DHL-4 cells at 0.17 uM incubated for 3 days in presence of 0.33 uM acalabrutinib relative to control; settings: SU-DHL-4, 72 h, time 3 day, read-out: GI
SUD4 [9] = assay: Growth inhibition of human SU-DHL-4 cells at 0.33 uM incubated for 3 days in presence of 0.003 uM acalabrutinib relative to control; settings: SU-DHL-4, 72 h, time 3 day, read-out: GI
SUD4 [10] = assay: Growth inhibition of human SU-DHL-4 cells at 0.17 uM incubated for 3 days in presence of 0.17 uM acalabrutinib relative to control; settings: SU-DHL-4, 72 h, time 3 day, read-out: GI
SUD4 [11] = assay: Growth inhibition of human SU-DHL-4 cells at 0.17 uM incubated for 3 days in presence of 0.033 uM acalabrutinib relative to control; settings: SU-DHL-4, 72 h, time 3 day, read-out: GI
SUD4 [12] = assay: Growth inhibition of human SU-DHL-4 cells at 0.17 uM incubated for 3 days in presence of 0.017 uM acalabrutinib relative to control; settings: SU-DHL-4, 72 h, time 3 day, read-out: GI
SUD4 [13] = assay: Growth inhibition of human SU-DHL-4 cells at 0.17 uM incubated for 3 days in presence of 0.003 uM acalabrutinib relative to control; settings: SU-DHL-4, 72 h, time 3 day, read-out: GI
OCI-Ly10 [14] = assay: Growth inhibition of human OCILY10 cells at 0.17 uM incubated for 3 days in presence of 0.017 uM acalabrutinib relative to control; settings: OCI-Ly10, 72 h, time 3 day, read-out: GI
OCI-Ly10 [15] = assay: Growth inhibition of human OCILY10 cells at 0.17 uM incubated for 3 days in presence of 0.033 uM acalabrutinib relative to control; settings: OCI-Ly10, 72 h, time 3 day, read-out: GI
OCI-Ly10 [16] = assay: Growth inhibition of human OCILY10 cells at 0.17 uM incubated for 3 days in presence of 0.17 uM acalabrutinib relative to control; settings: OCI-Ly10, 72 h, time 3 day, read-out: GI
OCI-Ly10 [17] = assay: Growth inhibition of human OCILY10 cells at 0.17 uM incubated for 3 days in presence of 0.33 uM acalabrutinib relative to control; settings: OCI-Ly10, 72 h, time 3 day, read-out: GI
OCI-Ly10 [18] = assay: Growth inhibition of human OCILY10 cells at 0.33 uM incubated for 3 days in presence of 0.003 uM acalabrutinib relative to control; settings: OCI-Ly10, 72 h, time 3 day, read-out: GI
OCI-Ly10 [19] = assay: Growth inhibition of human OCILY10 cells at 0.33 uM incubated for 3 days in presence of 0.017 uM acalabrutinib relative to control; settings: OCI-Ly10, 72 h, time 3 day, read-out: GI
OCI-Ly10 [20] = assay: Growth inhibition of human OCILY10 cells at 0.33 uM incubated for 3 days in presence of 0.033 uM acalabrutinib relative to control; settings: OCI-Ly10, 72 h, time 3 day, read-out: GI
OCI-Ly10 [21] = assay: Growth inhibition of human OCILY10 cells at 0.33 uM incubated for 3 days in presence of 0.17 uM acalabrutinib relative to control; settings: OCI-Ly10, 72 h, time 3 day, read-out: GI
OCI-Ly10 [22] = assay: Growth inhibition of human OCILY10 cells at 0.33 uM incubated for 3 days in presence of 0.33 uM acalabrutinib relative to control; settings: OCI-Ly10, 72 h, time 3 day, read-out: GI
OCI-Ly10 [23] = assay: Growth inhibition of human OCILY10 cells at 1.7 uM incubated for 3 days in presence of 0.017 uM acalabrutinib relative to control; settings: OCI-Ly10, 72 h, time 3 day, read-out: GI
OCI-Ly10 [24] = assay: Growth inhibition of human OCILY10 cells at 1.7 uM incubated for 3 days in presence of 0.033 uM acalabrutinib relative to control; settings: OCI-Ly10, 72 h, time 3 day, read-out: GI
OCI-Ly10 [25] = assay: Growth inhibition of human OCILY10 cells at 1.7 uM incubated for 3 days in presence of 0.17 uM acalabrutinib relative to control; settings: OCI-Ly10, 72 h, time 3 day, read-out: GI
OCI-Ly10 [26] = assay: Growth inhibition of human OCILY10 cells at 1.7 uM incubated for 3 days in presence of 0.33 uM acalabrutinib relative to control; settings: OCI-Ly10, 72 h, time 3 day, read-out: GI
OCI-Ly10 [27] = assay: Growth inhibition of human OCILY10 cells at 3.3 uM incubated for 3 days in presence of 0.003 uM acalabrutinib relative to control; settings: OCI-Ly10, 72 h, time 3 day, read-out: GI
OCI-Ly10 [28] = assay: Growth inhibition of human OCILY10 cells at 3.3 uM incubated for 3 days in presence of 0.033 uM acalabrutinib relative to control; settings: OCI-Ly10, 72 h, time 3 day, read-out: GI
OCI-Ly10 [29] = assay: Growth inhibition of human OCILY10 cells at 3.3 uM incubated for 3 days in presence of 0.17 uM acalabrutinib relative to control; settings: OCI-Ly10, 72 h, time 3 day, read-out: GI
OCI-Ly10 [30] = assay: Growth inhibition of human OCILY10 cells at 3.3 uM incubated for 3 days in presence of 0.33 uM acalabrutinib relative to control; settings: OCI-Ly10, 72 h, time 3 day, read-out: GI
OCI-Ly10 [31] = assay: Growth inhibition of human OCILY10 cells at 10 uM incubated for 3 days in presence of 0.003 uM acalabrutinib relative to control; settings: OCI-Ly10, 72 h, time 3 day, read-out: GI
OCI-Ly10 [32] = assay: Growth inhibition of human OCILY10 cells at 10 uM incubated for 3 days in presence of 0.017 uM acalabrutinib relative to control; settings: OCI-Ly10, 72 h, time 3 day, read-out: GI
OCI-Ly10 [33] = assay: Growth inhibition of human OCILY10 cells at 10 uM incubated for 3 days in presence of 0.033 uM acalabrutinib relative to control; settings: OCI-Ly10, 72 h, time 3 day, read-out: GI
OCI-Ly10 [34] = assay: Growth inhibition of human OCILY10 cells at 10 uM incubated for 3 days in presence of 0.17 uM acalabrutinib relative to control; settings: OCI-Ly10, 72 h, time 3 day, read-out: GI
OCI-Ly10 [35] = assay: Growth inhibition of human OCILY10 cells at 10 uM incubated for 3 days in presence of 0.33 uM acalabrutinib relative to control; settings: OCI-Ly10, 72 h, time 3 day, read-out: GI
SUD4 [36] = assay: Growth inhibition of human SU-DHL-4 cells at 1.7 uM incubated for 3 days in presence of 0.17 uM acalabrutinib relative to control; settings: SU-DHL-4, 72 h, time 3 day, read-out: GI
SUD4 [37] = assay: Growth inhibition of human SU-DHL-4 cells at 1.7 uM incubated for 3 days in presence of 0.33 uM acalabrutinib relative to control; settings: SU-DHL-4, 72 h, time 3 day, read-out: GI
SUD4 [38] = assay: Growth inhibition of human SU-DHL-4 cells at 3.3 uM incubated for 3 days in presence of 0.017 uM acalabrutinib relative to control; settings: SU-DHL-4, 72 h, time 3 day, read-out: GI
SUD4 [39] = assay: Growth inhibition of human SU-DHL-4 cells at 3.3 uM incubated for 3 days in presence of 0.033 uM acalabrutinib relative to control; settings: SU-DHL-4, 72 h, time 3 day, read-out: GI
SUD4 [40] = assay: Growth inhibition of human SU-DHL-4 cells at 3.3 uM incubated for 3 days in presence of 0.33 uM acalabrutinib relative to control; settings: SU-DHL-4, 72 h, time 3 day, read-out: GI
SUD4 [41] = assay: Growth inhibition of human SU-DHL-4 cells at 10 uM incubated for 3 days in presence of 0.003 uM acalabrutinib relative to control; settings: SU-DHL-4, 72 h, time 3 day, read-out: GI

SMILES: CC[C@@H]1[C@H](F)C(=O)N[C@@H]1COc1nccc2cc(C(N)=O)c(OC)cc12 [ZIMLOVISERTIB]
- inhibition of growth at 1.7 µM (SUD4 [1]): 1%
- inhibition of growth at 1.7 µM (SUD4 [2]): 2%
- inhibition of growth at 1.7 µM (SUD4 [3]): 2%
- inhibition of growth at 0.33 µM (SUD4 [4]): 6%
- inhibition of growth at 0.33 µM (SUD4 [5]): 2%
- inhibition of growth at 0.33 µM (SUD4 [6]): 1%
- inhibition of growth at 0.33 µM (SUD4 [7]): 1%
- inhibition of growth at 0.17 µM (SUD4 [8]): 6%
- inhibition of growth at 0.33 µM (SUD4 [9]): 1%
- inhibition of growth at 0.17 µM (SUD4 [10]): 2%
- inhibition of growth at 0.17 µM (SUD4 [11]): 1%
- inhibition of growth at 0.17 µM (SUD4 [12]): 1%
- inhibition of growth at 0.17 µM (SUD4 [13]): 1%
- inhibition of growth at 0.17 µM (OCI-Ly10 [14]): 93%
- inhibition of growth at 0.17 µM (OCI-Ly10 [15]): 142%
- inhibition of growth at 0.17 µM (OCI-Ly10 [16]): 171%
- inhibition of growth at 0.17 µM (OCI-Ly10 [17]): 171%
- inhibition of growth at 0.33 µM (OCI-Ly10 [18]): 21%
- inhibition of growth at 0.33 µM (OCI-Ly10 [19]): 92%
- inhibition of growth at 0.33 µM (OCI-Ly10 [20]): 142%
- inhibition of growth at 0.33 µM (OCI-Ly10 [21]): 171%
- inhibition of growth at 0.33 µM (OCI-Ly10 [22]): 172%
- inhibition of growth at 1.7 µM (OCI-Ly10 [23]): 89%
- inhibition of growth at 1.7 µM (OCI-Ly10 [24]): 139%
- inhibition of growth at 1.7 µM (OCI-Ly10 [25]): 170%
- inhibition of growth at 1.7 µM (OCI-Ly10 [26]): 170%
- inhibition of growth at 3.3 µM (OCI-Ly10 [27]): 36%
- inhibition of growth at 3.3 µM (OCI-Ly10 [28]): 139%
- inhibition of growth at 3.3 µM (OCI-Ly10 [29]): 170%
- inhibition of growth at 3.3 µM (OCI-Ly10 [30]): 170%
- inhibition of growth at 10 µM (OCI-Ly10 [31]): 80%
- inhibition of growth at 10 µM (OCI-Ly10 [32]): 140%
- inhibition of growth at 10 µM (OCI-Ly10 [33]): 155%
- inhibition of growth at 10 µM (OCI-Ly10 [34]): 178%
- inhibition of growth at 10 µM (OCI-Ly10 [35]): 177%
- inhibition of growth at 1.7 µM (SUD4 [36]): 3%
- inhibition of growth at 1.7 µM (SUD4 [37]): 6%
- inhibition of growth at 3.3 µM (SUD4 [38]): 2%
- inhibition of growth at 3.3 µM (SUD4 [39]): 2%
- inhibition of growth at 3.3 µM (SUD4 [40]): 6%
- inhibition of growth at 10 µM (SUD4 [41]): 2%
